Test results as given in US10975084B2, “KDM5 inhibitors” (Merck Sharp & Dohme Corp., priority 2016, dated 2021).

Target: KDM5B (Homo sapiens (Human), UniProt Q9UGL1)
Experiment: KDM5B TR-FRET Enzyme Activity Assay
Assay type: biochemical
Details: LANCE TR-FRET; 5 nM full-length recombinant KDM5B; ten point titration 100000 nM to 5.08 nM
Procedure: KDM5B TR-FRET Enzyme Activity Assay
KDM5B enzymatic activity was determined with the LANCE (Lanthanide Chelate Excite) TR-FRET (Time-resolved fluorescence resonance energy transfer) assay. […] To each well of a white Greiner 1536 Lumitrac 1536 well-plate, 50 nL of compound (100 fold dilution in final assay volume of 5 μL) was dispensed, followed by the addition of 4 μL of 1× assay buffer (50 mM Hepes 7.3, 0.5 mM TCEP, 0.005% Brij-35, 0.02% BSA, 50 μM Na-L-Ascorbate and 2 μM AmFe(II)Sulfate) containing 5 nM of Full-length KDM5B enzyme (recombinant protein from baculovirus-transfected Sf21 cells: full-length KDM5B; MW=176.825 kDa). Following a 30 minutes compound and enzyme incubation in a humidified chamber, each reaction was initiated by the addition of 1 μL 1× assay buffer containing […] biotinylated H3K4Me3 peptide, and 500 nM α-ketoglutarate. The final reaction in each well of 5 μL consists of 5 nM KDM5B, 500 nM biotinylated-peptide, and 500 nM α-ketoglutarate. De-methylation reactions were allowed to proceed for 60 minutes. Reactions were immediately quenched by the addition of 5 uL of 2× Lance Detection Buffer (PerkinElmer) with 0.5 mM EDTA and 2 nM of Eu-anti-H3K4Me1-2 antibody, and 30 nM of Streptavidin-conjugated Dylight 650 detection reagents. After 60 minutes incubation with detection reagents, reaction plates were read on a PerkinElmer EnVision plate reader using standard TR-FRET protocol. Briefly, excitation of donor molecules (Eu-chelate-anti-H3K4Me1-2-antibody) with a laser light source at 337 nm produces energy that can be transferred to Dylight-650 acceptor molecules if this donor:acceptor pair is within close proximity. Fluorescence intensity at both 665 nm (acceptor) and 615 nm (donor) are measured and a TR-FRET ratio calculated for each well (acceptor intensity/donor intensity). IC50 values were determined by 4 parameter robust fit of TR-FRET ratio values vs. (Log 10) compound concentrations.

KDM5B, sequence (Q9UGL1 whole entry): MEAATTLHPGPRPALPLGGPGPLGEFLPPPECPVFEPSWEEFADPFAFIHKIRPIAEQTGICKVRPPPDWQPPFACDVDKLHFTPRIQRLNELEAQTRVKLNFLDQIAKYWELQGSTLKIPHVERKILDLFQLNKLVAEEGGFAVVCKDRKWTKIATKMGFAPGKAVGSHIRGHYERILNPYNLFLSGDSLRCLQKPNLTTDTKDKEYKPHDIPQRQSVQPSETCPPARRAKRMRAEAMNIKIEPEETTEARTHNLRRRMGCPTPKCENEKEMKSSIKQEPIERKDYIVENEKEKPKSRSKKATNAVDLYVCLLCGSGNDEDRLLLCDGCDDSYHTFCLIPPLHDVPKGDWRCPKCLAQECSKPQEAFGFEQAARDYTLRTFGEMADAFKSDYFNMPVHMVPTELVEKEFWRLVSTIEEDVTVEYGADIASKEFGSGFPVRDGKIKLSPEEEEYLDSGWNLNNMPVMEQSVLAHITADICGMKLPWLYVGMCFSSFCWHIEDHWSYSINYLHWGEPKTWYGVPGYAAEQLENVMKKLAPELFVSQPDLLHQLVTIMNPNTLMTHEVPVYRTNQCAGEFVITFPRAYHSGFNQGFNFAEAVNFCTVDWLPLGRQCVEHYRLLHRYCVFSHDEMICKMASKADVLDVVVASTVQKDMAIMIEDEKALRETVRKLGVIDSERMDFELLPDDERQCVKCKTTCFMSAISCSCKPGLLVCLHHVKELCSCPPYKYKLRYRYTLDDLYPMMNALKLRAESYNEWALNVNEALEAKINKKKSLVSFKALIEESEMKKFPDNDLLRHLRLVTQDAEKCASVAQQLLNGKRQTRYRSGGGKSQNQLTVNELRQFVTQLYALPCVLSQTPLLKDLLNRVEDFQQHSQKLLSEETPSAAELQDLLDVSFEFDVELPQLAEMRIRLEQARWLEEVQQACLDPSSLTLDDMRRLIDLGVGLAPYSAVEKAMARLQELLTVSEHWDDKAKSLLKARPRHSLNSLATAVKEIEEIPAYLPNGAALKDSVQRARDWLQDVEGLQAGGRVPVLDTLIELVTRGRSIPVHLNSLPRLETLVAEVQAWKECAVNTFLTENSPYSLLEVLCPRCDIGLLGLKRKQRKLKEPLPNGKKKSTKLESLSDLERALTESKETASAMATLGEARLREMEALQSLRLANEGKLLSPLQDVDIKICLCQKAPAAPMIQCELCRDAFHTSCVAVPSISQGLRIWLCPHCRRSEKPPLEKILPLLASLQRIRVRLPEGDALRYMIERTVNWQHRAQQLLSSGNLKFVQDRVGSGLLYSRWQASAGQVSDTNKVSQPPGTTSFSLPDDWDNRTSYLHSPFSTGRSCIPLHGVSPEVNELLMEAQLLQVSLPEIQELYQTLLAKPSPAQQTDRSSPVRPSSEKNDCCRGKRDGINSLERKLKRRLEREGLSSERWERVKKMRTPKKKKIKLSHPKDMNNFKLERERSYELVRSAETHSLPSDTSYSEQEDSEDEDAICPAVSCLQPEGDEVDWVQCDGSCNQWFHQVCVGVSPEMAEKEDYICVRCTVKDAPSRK

Row | Structure (SMILES) | IC50
1 | O=c1cc(C(F)(F)F)[nH]c2ncnn12 [Example 8-3, 5-(trifluoromethyl)[1,2,4]triazolo[1,5-a]pyrimidin-7(4H)-one] | 13.4 µM
2 | Cc1cc(=O)n2ncnc2[nH]1 [Example 8-4, 5-methyl-[1,2,4]triazolo[1,5-a]pyrimidin-7(4H)-one] | 26.4 µM
3 | CCCc1cc(=O)n2ncnc2[nH]1 [Example 8-6] | 47.6 µM
4 | COC(=O)Cc1c(C)[nH]c2ncnn2c1=O [Example 8-7, methyl (5-methyl-7-oxo-4,7-dihydro[1,2,4]triazolo[1,5-a]pyrimidin-6-yl)acetate] | 21.3 µM
5 | CCc1cc(=O)n2ncnc2[nH]1 [Example 8-9, 5-ethyl-[1,2,4]triazolo[1,5-a]pyrimidin-7(4H)-one] | 21.8 µM
6 | CCOC(=O)c1[nH]c2ncnn2c(=O)c1Cl [Example 8-10, ethyl 6-chloro-7-oxo-4,7-dihydro[1,2,4]triazolo[1,5-a]pyrimidine-5-carboxylate] | 6.28 µM
7 | CCOC(=O)c1[nH]c2ncnn2c(=O)c1C [Example 8-11, ethyl 6-methyl-7-oxo-4,7-dihydro[1,2,4]triazolo[1,5-a]pyrimidine-5-carboxylate] | 6.75 µM
8 | Cn1ccc(-c2cc(=O)n3ncnc3[nH]2)n1 [Example 8-13, 5-(1-methyl-1H-pyrazol-3-yl)[1,2,4]triazolo[1,5-a]pyrimidin-7(4H)-one] | 29.2 µM
9 | O=c1c(F)c(C(F)(F)F)[nH]c2ncnn12 [Example 8-17, 6-fluoro-5-(trifluoromethyl)[1,2,4]triazolo[1,5-a]pyrimidin-7(4H)-one] | 25.7 µM
10 | CCc1[nH]c2ncnn2c(=O)c1C [Example 8-18, 5-ethyl-6-methyl[1,2,4]triazolo[1,5-a]pyrimidin-7(4H)-one] | 31.9 µM
11 | O=c1cc(C2CCOCC2)[nH]c2ncnn12 [Example 8-20, 5-(tetrahydro-2H-pyran-4-yl)[1,2,4]triazolo[1,5-a]pyrimidin-7(4H)-one] | 81.3 µM
12 | O=c1cc(-c2ccncc2)[nH]c2ncnn12 [Example 8-22, 5-pyridin-4-yl[1,2,4]triazolo[1,5-a]pyrimidin-7(4H)-one] | 18.9 µM
13 | O=c1cc(-c2ccco2)[nH]c2ncnn12 [Example 8-24, 5-furan-2-yl[1,2,4]triazolo[1,5-a]pyrimidin-7(4H)-one] | 6.79 µM
14 | Cc1[nH]c2ncnn2c(=O)c1F [Example 8-25, 6-fluoro-5-methyl[1,2,4]triazolo[1,5-a]pyrimidin-7(4H)-one] | 17.9 µM
15 | O=c1cc(-c2ccccc2Cl)[nH]c2ncnn12 [Example 8-27, 5-(2-chlorophenyl)[1,2,4]triazolo[1,5-a]pyrimidin-7(4H)-one] | 10.1 µM
16 | O=c1cc(-c2ccccc2F)[nH]c2ncnn12 [Example 8-28, 5-(2-fluorophenyl)[1,2,4]triazolo[1,5-a]pyrimidin-7(4H)-one] | 5.54 µM
17 | CCCc1[nH]c2ncnn2c(=O)c1-c1ccccc1 [Example 8-32, 6-phenyl-5-propyl[1,2,4]triazolo[1,5-a]pyrimidin-7(4H)-one] | 37.6 µM
18 | CC(C)c1cc(=O)n2ncnc2[nH]1 [Example 8-33, 5-(1-methylethyl)[1,2,4]triazolo[1,5-a]pyrimidin-7(4H)-one] | 82.3 µM
19 | CCc1c(C)[nH]c2nncn2c1=O [Example 8-37, 6-ethyl-7-methyl[1,2,4]triazolo[4,3-a]pyrimidin-5(8H)-one] | 91.7 µM

Stronger by IC50, values ahead:

Row | IC50 | Structure (SMILES)
20 | 4.1 µM | O=c1cc(-c2ccoc2)[nH]c2ncnn12 [Example 8-21, 5-furan-3-yl[1,2,4]triazolo[1,5-a]pyrimidin-7(4H)-one]
21 | 3.49 µM | CCc1c(C)[nH]c2ncnn2c1=O [Example 8-36, 6-ethyl-5-methyl-[1,2,4]triazolo[1,5-a]pyrimidin-7(4H)-one]
22 | 3.33 µM | Cn1cc(-c2cc(=O)n3ncnc3[nH]2)cn1 [Example 8-31, 5-(1-methyl-1H-pyrazol-4-yl)[1,2,4]triazolo[1,5-a]pyrimidin-7(4H)-one]
23 | 2.98 µM | O=c1cc(-c2cccc(Cl)c2)[nH]c2ncnn12 [Example 8-29, 5-(3-chlorophenyl)[1,2,4]triazolo[1,5-a]pyrimidin-7(4H)-one]
24 | 2.45 µM | O=c1cc(-c2cccc(F)c2)[nH]c2ncnn12 [Example 8-30, 5-(3-fluorophenyl)[1,2,4]triazolo[1,5-a]pyrimidin-7(4H)-one]
25 | 2.42 µM | O=c1cc(-c2ccccn2)[nH]c2ncnn12 [Example 8-23, 5-pyridin-2-yl[1,2,4]triazolo[1,5-a]pyrimidin-7(4H)-one]
26 | 2.24 µM | O=c1cc(-c2ccccc2)[nH]c2ncnn12 [Example 8-5, 5-phenyl-[1,2,4]triazolo[1,5-a]pyrimidin-7(4H)-one]
27 | 1.59 µM | CCc1c(C(F)(F)F)[nH]c2ncnn2c1=O [Example 8-16, 6-ethyl-5-(trifluoromethyl)[1,2,4]triazolo[1,5-a]pyrimidin-7(4H)-one]
28 | 1.53 µM | CC(C)n1cc(-c2cc(=O)n3ncnc3[nH]2)cn1 [Example 8-19, 5-[1-(1-methylethyl)-1H-pyrazol-4-yl][1,2,4]triazolo[1,5-a]pyrimidin-7(4H)-one]
29 | 1.39 µM | O=c1cc(-c2ccc(Cl)cc2)[nH]c2ncnn12 [Example 8-26, 5-(4-chlorophenyl)[1,2,4]triazolo[1,5-a]pyrimidin-7(4H)-one]
30 | 1.3 µM | O=c1cc(-c2ccc(F)cc2)[nH]c2ncnn12 [Example 8-8, 5-(4-fluorophenyl)[1,2,4]triazolo[1,5-a]pyrimidin-7(4H)-one]
31 | 1.03 µM | O=c1c(C2CCC2)c(-c2ccc(F)cc2)[nH]c2ncnn12 [Example 8-40, 6-cyclobutyl-5-(4-fluorophenyl)[1,2,4]triazolo[1,5-a]pyrimidin-7(4H)-one]
32 | 0.904 µM | CC(C)(C)c1c(-c2cnn(C(C)(C)C)c2)[nH]c2ncnn2c1=O [Example 11-4, 6-tert-butyl-5-(1-tert-butyl-1H-pyrazol-4-yl)[1,2,4]triazolo[1,5-a]pyrimidin-7(4H)-one]
33 | 0.519 µM | CCc1c(-c2ccccc2)[nH]c2ncnn2c1=O [Example 8-34, 6-ethyl-5-phenyl[1,2,4]triazolo[1,5-a]pyrimidin-7(4H)-one]
34 | 0.474 µM | Cc1[nH]c2ncnn2c(=O)c1C(C)C [Example 8-12, 5-methyl-6-(1-methylethyl)[1,2,4]triazolo[1,5-a]pyrimidin-7(4H)-one]
35 | 0.271 µM | CC(C)c1c(-c2ccccc2)[nH]c2ncnn2c1=O [Example 8-35, 6-(1-methylethyl)-5-phenyl[1,2,4]triazolo[1,5-a]pyrimidin-7(4H)-one]
36 | 0.0871 µM | CC(C)(C)n1cc(-c2[nH]c3ncnn3c(=O)c2CC(F)(F)F)cn1 [Example 8-39, 5-(1-tert-butyl-1H-pyrazol-4-yl)-6-(2,2,2-trifluoroethyl)[1,2,4]triazolo[1,5-a]pyrimidin-7(4H)-one]
37 | 0.0329 µM | CC(C)n1cc(-c2[nH]c3ncnn3c(=O)c2C2CCC2)cn1 [Example 8-41, 6-cyclobutyl-5-[1-(1-methylethyl)-1H-pyrazol-4-yl][1,2,4]triazolo[1,5-a]pyrimidin-7(4H)-one]
38 | 0.0162 µM | CC(C)c1c(-c2cnn(C)c2)[nH]c2ncnn2c1=O [Example 8-38, 6-(1-methylethyl)-5-(1-methyl-1H-pyrazol-4-yl)[1,2,4]triazolo[1,5-a]pyrimidin-7(4H)-one]
